Bounds are passed on as bounds.

The target of the assay is T1, human GLP-1R (Homo sapiens, UniProt P43220).
T1 construct: host or cells: HEK293
T1 sequence (P43220 24-463): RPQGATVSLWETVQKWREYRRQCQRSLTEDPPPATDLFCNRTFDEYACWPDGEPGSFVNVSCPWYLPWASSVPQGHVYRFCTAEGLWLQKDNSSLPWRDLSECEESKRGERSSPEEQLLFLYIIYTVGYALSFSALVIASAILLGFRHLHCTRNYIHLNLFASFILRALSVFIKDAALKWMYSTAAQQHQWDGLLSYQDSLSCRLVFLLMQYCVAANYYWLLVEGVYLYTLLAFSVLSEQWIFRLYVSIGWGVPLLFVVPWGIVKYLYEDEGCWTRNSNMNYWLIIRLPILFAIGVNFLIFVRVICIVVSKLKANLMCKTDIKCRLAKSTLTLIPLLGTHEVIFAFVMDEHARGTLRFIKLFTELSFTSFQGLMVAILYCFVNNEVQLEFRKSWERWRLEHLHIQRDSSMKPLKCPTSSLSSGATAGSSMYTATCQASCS
The experiment in a line: GLP-1R cAMP assay (Example B1a, HTRF, 30 min at room temperature). To be noted: cAMP accumulation in HEK293 expressing human GLP-1R, no BETP, 30 min room temperature (Method B1a, compounds ID 1-609), Table 1; read-out: EC50. The class given is cell-based. Summed up: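 Competitive HTRF read-out of cAMP after 30 min room-temperature stimulation, BETP absent, of human GLP-1R-HEK293 cells (1,000/well) in HEPES buffer with 500 μM IBMX and 0.1% BSA. Activation normalised to GLP-1(7-37) positive control. EC50 from 4-parameter non-linear regression.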
`Cc1cc(-n2nc3c(c2-n2ccn(-c4ccc5c(cnn5C)c4F)c2=O)[C@@H]2CC[C@H](CC3)N2C(=O)c2cc3cc([C@H]4CCOC(C)(C)C4)ccc3n2[C@@]2(c3noc(=O)[nH]3)C[C@@H]2C)cc(C)c1F` [Compound 523, 3-[(1S,2S)-1-[5-[(4S)-2,2-dimethyltetrahydropyran-4-yl]-2-[(1S,9R)-4-(4-fluoro-3,5-dimethyl-phenyl)-3-[3-(4-fluoro-1-methyl-indazol-5-yl)-2-oxo-imidazol-1-yl]-4,5,12-triazatricyclo[7.2.1.02,6]dodeca-2,5-diene-12-carbonyl]indol-1-yl]-2-methyl-cyclopropyl]-4H-1,2,4-oxadiazol-5-one]: the EC50 was 617 nM.
To `Cc1cc(-n2nc3c(c2-n2ccn(-c4ccc5c(cnn5C)c4F)c2=O)[C@H]2CC[C@@H](CC3)N2C(=O)c2cc3cc([C@H]4CCOC(C)(C)C4)ccc3n2[C@@]2(c3noc(=O)[nH]3)C[C@@H]2C)cc(C)c1F` [Compound 524, 3-[(1S,2S)-1-[5-[(4S)-2,2-dimethyltetrahydropyran-4-yl]-2-[(1R,9S)-4-(4-fluoro-3,5-dimethyl-phenyl)-3-[3-(4-fluoro-1-methyl-indazol-5-yl)-2-oxo-imidazol-1-yl]-4,5,12-triazatricyclo[7.2.1.02,6]dodeca-2,5-diene-12-carbonyl]indol-1-yl]-2-methyl-cyclopropyl]-4H-1,2,4-oxadiazol-5-one] belongs no less than 10000 nM.
In the case of `Cc1cc(-n2nc3c(c2-n2ccn(-c4ccc5c(cnn5C)c4F)c2=O)[C@@H]2CC[C@H](C3)N2S(=O)(=O)c2cc3cc([C@H]4CCOC(C)(C)C4)ccc3n2[C@@]2(c3noc(=O)[nH]3)C[C@@H]2C)cc(C)c1F` [Compound 525, 3-[(1S,2S)-1-[5-[(4S)-2,2-dimethyltetrahydropyran-4-yl]-2-[[(1S,8R)-4-(4-fluoro-3,5-dimethyl-phenyl)-3-[3-(4-fluoro-1-methyl-indazol-5-yl)-2-oxo-imidazol-1-yl]-4,5,11-triazatricyclo[6.2.1.02,6]undeca-2,5-dien-11-yl]sulfonyl]indol-1-yl]-2-methyl-cyclopropyl]-4H-1,2,4-oxadiazol-5-one] it was 58.4 nM; in that of `Cc1cc(-n2nc3c(c2-n2ccn(-c4ccc5c(cnn5C)c4F)c2=O)[C@@H]2COC[C@H](C3)N2S(=O)(=O)c2cc3cc(C4CCOCC4)ccc3n2[C@@]2(c3noc(=O)[nH]3)C[C@@H]2C)cc(C)c1F` [Compound 526, 3-[(1S,2S)-1-[2-[[(1R,8S)-4-(4-fluoro-3,5-dimethyl-phenyl)-3-[3-(4-fluoro-1-methyl-indazol-5-yl)-2-oxo-imidazol-1-yl]-10-oxa-4,5,12-triazatricyclo[6.3.1.02,6]dodeca-2,5-dien-12-yl]sulfonyl]-5-tetrahydropyran-4-yl-indol-1-yl]-2-methyl-cyclopropyl]-4H-1,2,4-oxadiazol-5-one], 1130 nM.
To `Cc1cc(-n2nc3c(c2-n2ccn(-c4ccc5c(cnn5C)c4F)c2=O)[C@@H]2CCC[C@H](C3)N2S(=O)(=O)c2cc3cc([C@H]4CCOC(C)(C)C4)ccc3n2C2(c3noc(=O)[nH]3)C[C@@H]2C)cc(C)c1F` (stereo partly drawn) [Compound 527, 3-[(2S)-1-[5-[(4S)-2,2-dimethyltetrahydropyran-4-yl]-2-[[(1S,8R)-4-(4-fluoro-3,5-dimethyl-phenyl)-3-[3-(4-fluoro-1-methyl-indazol-5-yl)-2-oxo-imidazol-1-yl]-4,5,12-triazatricyclo[6.3.1.02,6]dodeca-2,5-dien-12-yl]sulfonyl]indol-1-yl]-2-methyl-cyclopropyl]-4H-1,2,4-oxadiazol-5-one] belongs 975 nM; to `Cc1cc(-n2nc3c(c2-n2ccn(-c4ccc5c(cnn5C)c4F)c2=O)[C@@H]2CC[C@H](C3)N2C(=O)c2cc3cc([C@H]4CCOC5(CC5)C4)ccc3n2[C@]2(c3noc(=O)[nH]3)C[C@@H]2C)cc(C)c1F` [Compound 528, 3-[(1R,2S)-1-[2-[(1S,8R)-4-(4-fluoro-3,5-dimethyl-phenyl)-3-[3-(4-fluoro-1-methyl-indazol-5-yl)-2-oxo-imidazol-1-yl]-4,5,11-triazatricyclo[6.2.1.02,6]undeca-2,5-diene-11-carbonyl]-5-[(7S)-4-oxaspiro[2.5]octan-7-yl]indol-1-yl]-2-methyl-cyclopropyl]-4H-1,2,4-oxadiazol-5-one], 1440 nM.
On to `Cc1cc(-n2nc3c(c2-n2ccn(-c4ccc5c(cnn5C)c4F)c2=O)[C@@H]2CC[C@H](C3)N2C(=O)c2cc3cc([C@@H]4CCOC5(CC5)C4)ccc3n2[C@]2(c3noc(=O)[nH]3)C[C@@H]2C)cc(C)c1F` [Compound 529, 3-[(1R,2S)-1-[2-[(1S,8R)-4-(4-fluoro-3,5-dimethyl-phenyl)-3-[3-(4-fluoro-1-methyl-indazol-5-yl)-2-oxo-imidazol-1-yl]-4,5,11-triazatricyclo[6.2.1.02,6]undeca-2,5-diene-11-carbonyl]-5-[(7R)-4-oxaspiro[2.5]octan-7-yl]indol-1-yl]-2-methyl-cyclopropyl]-4H-1,2,4-oxadiazol-5-one], for which the EC50 was no less than 10000 nM.
As to `Cc1cc(-n2nc3c(c2-n2ccn(-c4ccc5c(cnn5C)c4F)c2=O)[C@H]2CC[C@@H](C3)N2C(=O)c2cc3cc([C@@H]4CCOC5(CC5)C4)ccc3n2[C@]2(c3noc(=O)[nH]3)C[C@@H]2C)cc(C)c1F` [Compound 530, 3-[(1R,2S)-1-[2-[(1R,8S)-4-(4-fluoro-3,5-dimethyl-phenyl)-3-[3-(4-fluoro-1-methyl-indazol-5-yl)-2-oxo-imidazol-1-yl]-4,5,11-triazatricyclo[6.2.1.02,6]undeca-2,5-diene-11-carbonyl]-5-[(7R)-4-oxaspiro[2.5]octan-7-yl]indol-1-yl]-2-methyl-cyclopropyl]-4H-1,2,4-oxadiazol-5-one], the EC50 was no less than 10000 nM.
To `Cc1cc(-n2nc3c(c2-n2ccn(-c4ccc5c(cnn5C)c4F)c2=O)[C@H]2CC[C@@H](C3)N2C(=O)c2cc3cc([C@H]4CCOC5(CC5)C4)ccc3n2[C@]2(c3noc(=O)[nH]3)C[C@@H]2C)cc(C)c1F` [Compound 531, 3-[(1R,2S)-1-[2-[(1R,8S)-4-(4-fluoro-3,5-dimethyl-phenyl)-3-[3-(4-fluoro-1-methyl-indazol-5-yl)-2-oxo-imidazol-1-yl]-4,5,11-triazatricyclo[6.2.1.02,6]undeca-2,5-diene-11-carbonyl]-5-[(7S)-4-oxaspiro[2.5]octan-7-yl]indol-1-yl]-2-methyl-cyclopropyl]-4H-1,2,4-oxadiazol-5-one] belongs no less than 10000 nM; to `Cc1cc(-n2nc3c(c2-n2ccn(-c4ccc5c(cnn5C)c4F)c2=O)[C@@H]2CC[C@H](C3)N2C(=O)c2c(C)c3cc([C@H]4CCOC(C)(C)C4)ccc3n2[C@@]2(c3noc(=O)[nH]3)C[C@@H]2C)cc(C)c1F` [Compound 532, 3-[(1S,2S)-1-[5-[(4S)-2,2-dimethyltetrahydropyran-4-yl]-2-[(1S,8R)-4-(4-fluoro-3,5-dimethyl-phenyl)-3-[3-(4-fluoro-1-methyl-indazol-5-yl)-2-oxo-imidazol-1-yl]-4,5,11-triazatricyclo[6.2.1.02,6]undeca-2,5-diene-11-carbonyl]-3-methyl-indol-1-yl]-2-methyl-cyclopropyl]-4H-1,2,4-oxadiazol-5-one], 672 nM.
In the case of `Cc1cc(-n2nc3c(c2-n2ccn(-c4ccc5c(cnn5C)c4F)c2=O)[C@@H]2CCC[C@H](C3)N2S(=O)(=O)c2cc3cc(C4CCOCC4)ccc3n2[C@@]2(c3noc(=O)[nH]3)C[C@@H]2C)cc(C)c1F` [Compound 533, 3-[(1S,2S)-1-[2-[[(1S,8R)-4-(4-fluoro-3,5-dimethyl-phenyl)-3-[3-(4-fluoro-1-methyl-indazol-5-yl)-2-oxo-imidazol-1-yl]-4,5,12-triazatricyclo[6.3.1.02,6]dodeca-2,5-dien-12-yl]sulfonyl]-5-tetrahydropyran-4-yl-indol-1-yl]-2-methyl-cyclopropyl]-4H-1,2,4-oxadiazol-5-one] it was 10400 nM; in that of `Cc1cc(-n2nc3c(c2-n2ccn(-c4ccc5c(cnn5C)c4F)c2=O)[C@@H]2CCC[C@H](C3)N2S(=O)(=O)c2cc3cc(C4CCOCC4)ccc3n2[C@]2(c3noc(=O)[nH]3)C[C@@H]2C)cc(C)c1F` [Compound 534, 3-[(1R,2S)-1-[2-[[(1S,8R)-4-(4-fluoro-3,5-dimethyl-phenyl)-3-[3-(4-fluoro-1-methyl-indazol-5-yl)-2-oxo-imidazol-1-yl]-4,5,12-triazatricyclo[6.3.1.02,6]dodeca-2,5-dien-12-yl]sulfonyl]-5-tetrahydropyran-4-yl-indol-1-yl]-2-methyl-cyclopropyl]-4H-1,2,4-oxadiazol-5-one], no less than 10000 nM.
With `Cc1cc(-n2nc3c(c2-n2ccn(-c4ccc5c(cnn5C)c4F)c2=O)[C@@H]2CCC[C@H](C3)N2S(=O)(=O)c2cc3cc(N4CCOC5(CC5)C4)ccc3n2[C@@]2(c3noc(=O)[nH]3)C[C@@H]2C)cc(C)c1F` [Compound 535, 3-[(1S,2S)-1-[2-[[(1S,8R)-4-(4-fluoro-3,5-dimethyl-phenyl)-3-[3-(4-fluoro-1-methyl-indazol-5-yl)-2-oxo-imidazol-1-yl]-4,5,12-triazatricyclo[6.3.1.02,6]dodeca-2,5-dien-12-yl]sulfonyl]-5-(4-oxa-7-azaspiro[2.5]octan-7-yl)indol-1-yl]-2-methyl-cyclopropyl]-4H-1,2,4-oxadiazol-5-one], the EC50 turned out to be 1890 nM.
To `Cc1cc(-n2nc3c(c2-n2ccn(-c4ccc5c(cnn5C)c4F)c2=O)[C@@H]2COC[C@H](C3)N2S(=O)(=O)c2cc3cc([C@H]4CCOC(C)(C)C4)ccc3n2[C@@]2(c3noc(=O)[nH]3)C[C@@H]2C)cc(C)c1F` [Compound 536, 3-((1S,2S)-1-(5-((S)-2,2-dimethyltetrahydro-2H-pyran-4-yl)-2-(((4R,8S)-3-(3-(4-fluoro-1-methyl-1H-indazol-5-yl)-2-oxo-2,3-dihydro-1H-imidazol-1-yl)-2-(4-fluoro-3,5-dimethylphenyl)-2,4,5,7,8,9-hexahydro-4,8-epiminooxocino [5,4-c]pyrazol-10-yl)sulfonyl)-1H-indol-1-yl)-2-methylcyclopropyl)-1,2,4-oxadiazol-5 (4H)-one] belongs 262 nM.

For the origin of these results see patent US12617783B2, “Heterocyclic GLP-1R agonists” (BIOMEA FUSION, INC., priority 2024, dated 2026).
